According to patent publication US20250270200A1, “CTPS1 INHIBITORS AND USES THEREOF” (Nimbus Clotho, Inc., priority 2022, published 2025):

Target: T1, human CTPS1 (Homo sapiens, UniProt P17812)
T1 sequence (P17812 1-591): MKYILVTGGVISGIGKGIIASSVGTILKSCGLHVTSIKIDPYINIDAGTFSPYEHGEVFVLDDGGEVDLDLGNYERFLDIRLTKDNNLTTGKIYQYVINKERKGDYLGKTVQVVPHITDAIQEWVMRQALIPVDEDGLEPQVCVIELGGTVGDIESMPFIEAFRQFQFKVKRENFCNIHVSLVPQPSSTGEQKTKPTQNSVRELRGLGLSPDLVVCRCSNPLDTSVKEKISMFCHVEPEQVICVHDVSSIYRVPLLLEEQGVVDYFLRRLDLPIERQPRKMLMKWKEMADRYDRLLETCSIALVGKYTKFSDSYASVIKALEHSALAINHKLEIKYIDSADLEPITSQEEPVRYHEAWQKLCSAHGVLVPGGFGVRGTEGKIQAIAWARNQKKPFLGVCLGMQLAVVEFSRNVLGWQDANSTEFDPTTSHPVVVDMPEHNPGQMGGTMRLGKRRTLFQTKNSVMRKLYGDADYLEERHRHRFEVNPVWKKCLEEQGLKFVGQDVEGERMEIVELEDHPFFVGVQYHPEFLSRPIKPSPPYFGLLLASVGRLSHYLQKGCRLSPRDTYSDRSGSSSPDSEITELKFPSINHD
Assay: ADP-Glo assay, human CTPS1 enzyme inhibition
Format: biochemical
Conditions: wild-type human CTPS1, 25 nM enzyme; ADP-Glo; read-out: ADP-Glo_WT_hCTPS1—25 nM_IC50 (IC50)
Procedure, shortened: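 ADP-Glo luminescence quantified ADP produced by 25 nM purified human CTPS1 (full length, FLAG-His tagged) at 25° C within the linear phase. Final substrates: ATP 120 μM, UTP 160 μM, GTP 60 μM, L-glutamine 100 μM; 1% DMSO; pH 7.4 HEPES buffer with Mg2+, KCl, DTT. Compound pre-incubated with enzyme 10 min, then with ATP/UTP 10 min.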

Row | IC50 | SMILES
1 | 5 to 25 nM | CCOc1cncc(-c2cnc(C(=O)N[C@@H](c3cc(NS(=O)(=O)C4CC4)ccn3)[C@@H]3CCN(C4CC4)C3)s2)n1 [I-114, N-((R)-(4-(cyclopropanesulfonamido)pyridin-2-yl)((R)-1-cyclopropylpyrrolidin-3-yl)methyl)-5-(6-ethoxypyrazin-2-yl)thiazole-2-carboxamide]
2 | 50 to 100 nM | CCOc1cncc(-c2cnc(C(=O)N[C@H](c3cc(NS(=O)(=O)C4CC4)ccn3)[C@@H]3CCCN3C)s2)n1 [I-115, N-((S)-(4-(cyclopropanesulfonamido)pyridin-2-yl)((S)-1-methylpyrrolidin-2-yl)methyl)-5-(6-ethoxypyrazin-2-yl)thiazole-2-carboxamide]
3 | 25 to 50 nM | CCOc1cncc(-c2cnc(C(=O)N[C@H](c3cc(NS(=O)(=O)C4CC4)ccn3)[C@H]3CCCN3C)s2)n1 [I-116, N-((S)-(4-(cyclopropanesulfonamido)pyridin-2-yl)((R)-1-methylpyrrolidin-2-yl)methyl)-5-(6-ethoxypyrazin-2-yl)thiazole-2-carboxamide]
4 | 5 to 25 nM | CCOc1cncc(-c2cnc(C(=O)N[C@@H](c3cc(NS(=O)(=O)C4CC4)ccn3)[C@@H]3CCCN3C)s2)n1 [I-117, N-((R)-(4-(cyclopropanesulfonamido)pyridin-2-yl)((S)-1-methylpyrrolidin-2-yl)methyl)-5-(6-ethoxypyrazin-2-yl)thiazole-2-carboxamide]
5 | 5 to 25 nM | CCOc1cncc(-c2cnc(C(=O)N[C@@H](c3cc(NS(=O)(=O)C4CC4)ccn3)[C@H]3CCCN3C)s2)n1 [I-118, N-((R)-(4-(cyclopropanesulfonamido)pyridin-2-yl)((R)-1-methylpyrrolidin-2-yl)methyl)-5-(6-ethoxypyrazin-2-yl)thiazole-2-carboxamide]
6 | 25 to 50 nM | CCOc1cncc(-c2cnc(C(=O)N[C@H](c3cc(NS(=O)(=O)C4CC4)ccn3)[C@@H]3CC(=O)N(C)C3)s2)n1 [I-119, N-((S)-(4-(cyclopropanesulfonamido)pyridin-2-yl)((R)-1-methyl-5-oxopyrrolidin-3-yl)methyl)-5-(6-ethoxypyrazin-2-yl)thiazole-2-carboxamide]
7 | 25 to 50 nM | CCOc1cncc(-c2cnc(C(=O)N[C@H](c3cc(NS(=O)(=O)C4CC4)ccn3)[C@H]3CC(=O)N(C)C3)s2)n1 [I-120, N-((S)-(4-(cyclopropanesulfonamido)pyridin-2-yl)((S)-1-methyl-5-oxopyrrolidin-3-yl)methyl)-5-(6-ethoxypyrazin-2-yl)thiazole-2-carboxamide]
8 | 5 to 25 nM | CCOc1cncc(-c2cnc(C(=O)N[C@@H](c3cc(NS(=O)(=O)C4CC4)ccn3)[C@@H]3CC(=O)N(C)C3)s2)n1 [I-121, N-((R)-(4-(cyclopropanesulfonamido)pyridin-2-yl)((R)-1-methyl-5-oxopyrrolidin-3-yl)methyl)-5-(6-ethoxypyrazin-2-yl)thiazole-2-carboxamide]
9 | 5 to 25 nM | CCOc1cncc(-c2cnc(C(=O)N[C@@H](c3cc(NS(=O)(=O)C4CC4)ccn3)[C@H]3CC(=O)N(C)C3)s2)n1 [I-122, N-((R)-(4-(cyclopropanesulfonamido)pyridin-2-yl)((S)-1-methyl-5-oxopyrrolidin-3-yl)methyl)-5-(6-ethoxypyrazin-2-yl)thiazole-2-carboxamide]
10 | 50 to 100 nM | CCOc1cncc(-c2cnc(C(=O)N[C@@H](CN3C[C@H]4CC[C@@H]3CO4)c3cc(NS(=O)(=O)C4CC4)ccn3)s2)n1 [I-123, N-((S)-2-((1R,4R)-2-oxa-5-azabicyclo[2.2.2]octan-5-yl)-1-(4-(cyclopropanesulfonamido)pyridin-2-yl)ethyl)-5-(6-ethoxypyrazin-2-yl)thiazole-2-carboxamide]
11 | 25 to 50 nM | CCOc1cncc(-c2cnc(C(=O)N[C@H](CN3C[C@H]4CC[C@@H]3CO4)c3cc(NS(=O)(=O)C4CC4)ccn3)s2)n1 [I-124, N-((R)-2-((1R,4R)-2-oxa-5-azabicyclo[2.2.2]octan-5-yl)-1-(4-(cyclopropanesulfonamido)pyridin-2-yl)ethyl)-5-(6-ethoxypyrazin-2-yl)thiazole-2-carboxamide]
12 | 25 to 50 nM | CCOc1cncc(-c2cnc(C(=O)N[C@@H](CN3CC[C@@]4(CCOC4)C3)c3cc(NS(=O)(=O)C4CC4)ccn3)s2)n1 [I-125, N-((S)-1-(4-(cyclopropanesulfonamido)pyridin-2-yl)-2-((R)-2-oxa-7-azaspiro[4.4]nonan-7-yl)ethyl)-5-(6-ethoxypyrazin-2-yl)thiazole-2-carboxamide]
13 | 5 to 25 nM | CCOc1cncc(-c2cnc(C(=O)N[C@H](CN3CC[C@@]4(CCOC4)C3)c3cc(NS(=O)(=O)C4CC4)ccn3)s2)n1 [I-126, N-((R)-1-(4-(cyclopropanesulfonamido)pyridin-2-yl)-2-((R)-2-oxa-7-azaspiro[4.4]nonan-7-yl)ethyl)-5-(6-ethoxypyrazin-2-yl)thiazole-2-carboxamide]
14 | 5 to 25 nM | CCOc1cncc(-c2cnc(C(=O)N[C@@H](CN3CC[C@]4(CCOC4)C3)c3cc(NS(=O)(=O)C4CC4)ccn3)s2)n1 [I-127, N-((S)-1-(4-(cyclopropanesulfonamido)pyridin-2-yl)-2-((S)-2-oxa-7-azaspiro[4.4]nonan-7-yl)ethyl)-5-(6-ethoxypyrazin-2-yl)thiazole-2-carboxamide]
15 | 50 to 100 nM | CCOc1cncc(-c2cnc(C(=O)N[C@@H](CN3CC[C@@](C)(O)C3)c3cc(NS(=O)(=O)C4CC4)ccn3)s2)n1 [I-129, N-((S)-1-(4-(cyclopropanesulfonamido)pyridin-2-yl)-2-((R)-3-hydroxy-3-methylpyrrolidin-1-yl)ethyl)-5-(6-ethoxypyrazin-2-yl)thiazole-2-carboxamide]
16 | 5 to 25 nM | CCOc1cncc(-c2cnc(C(=O)N[C@@H](CN3CC[C@](C)(O)C3)c3cc(NS(=O)(=O)C4CC4)ccn3)s2)n1 [I-130, N-((S)-1-(4-(cyclopropanesulfonamido)pyridin-2-yl)-2-((S)-3-hydroxy-3-methylpyrrolidin-1-yl)ethyl)-5-(6-ethoxypyrazin-2-yl)thiazole-2-carboxamide]
17 | 5 to 25 nM | CCOc1cncc(-c2cnc(C(=O)N[C@H](CN3CC[C@](C)(O)C3)c3cc(NS(=O)(=O)C4CC4)ccn3)s2)n1 [I-131, N-((R)-1-(4-(cyclopropanesulfonamido)pyridin-2-yl)-2-((S)-3-hydroxy-3-methylpyrrolidin-1-yl)ethyl)-5-(6-ethoxypyrazin-2-yl)thiazole-2-carboxamide]
18 | 5 to 25 nM | CCOc1cncc(-c2cnc(C(=O)N[C@H](CN3CC[C@@](C)(O)C3)c3cc(NS(=O)(=O)C4CC4)ccn3)s2)n1 [I-132, N-((R)-1-(4-(cyclopropanesulfonamido)pyridin-2-yl)-2-((R)-3-hydroxy-3-methylpyrrolidin-1-yl)ethyl)-5-(6-ethoxypyrazin-2-yl)thiazole-2-carboxamide]
19 | 5 to 25 nM | CCOc1cncc(-c2cnc(C(=O)N[C@@H](CN3CCCOCC3)c3cc(NS(=O)(=O)C4CC4)ccn3)s2)n1 [I-134, (S)-N-(1-(4-(cyclopropanesulfonamido)pyridin-2-yl)-2-(1,4-oxazepan-4-yl)ethyl)-5-(6-ethoxypyrazin-2-yl)thiazole-2-carboxamide]
20 | ≤ 5 nM | CCOc1cncc(-c2cnc(C(=O)N[C@@H](CN3C[C@@H]4CC[C@H]3CO4)c3cc(NS(=O)(=O)C4CC4)ccn3)s2)n1 [I-135, N-((S)-2-((1S,4S)-2-oxa-5-azabicyclo[2.2.2]octan-5-yl)-1-(4-(cyclopropanesulfonamido)pyridin-2-yl)ethyl)-5-(6-ethoxypyrazin-2-yl)thiazole-2-carboxamide]
